{"source": "PubChem BioAssay (NCI)", "assay_in_all_cases": "growth of human tumour cells (NCI), 48 h", "key": {"SK-MEL-5 melanoma": {"tested_on": "SK-MEL-5 melanoma"}, "SNB-19 CNS": {"tested_on": "SNB-19 CNS"}, "EKVX NSCLC": {"tested_on": "EKVX NSCLC"}, "OVCAR-8 ovarian": {"tested_on": "OVCAR-8 ovarian"}, "CCRF-CEM leukemia": {"tested_on": "CCRF-CEM leukemia"}, "HCT-116 colon": {"tested_on": "HCT-116 colon"}, "K-562 leukemia": {"tested_on": "K-562 leukemia"}, "A498 renal": {"tested_on": "A498 renal"}, "HOP-92 NSCLC": {"tested_on": "HOP-92 NSCLC"}, "NCI-H23 lung": {"tested_on": "NCI-H23 lung"}}, "note": "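Cultured in 96-well plates, cells were exposed to test compound for 48 hours across five concentrations. TGI marks complete inhibition of growth.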", "data": [{"smiles": "COc1ccc2c(c1)CCCN1CCc3cc(OC)c(OC)cc3C21", "note": "(stereo not given)", "values": [{"measurement": "TGI", "setting": "SK-MEL-5 melanoma", "value": "> 100", "unit": "µM"}, {"measurement": "TGI", "setting": "SNB-19 CNS", "value": "> 100", "unit": "µM"}, {"measurement": "TGI", "setting": "EKVX NSCLC", "value": "> 100", "unit": "µM"}, {"measurement": "TGI", "setting": "OVCAR-8 ovarian", "value": "> 100", "unit": "µM"}, {"measurement": "TGI", "setting": "CCRF-CEM leukemia", "value": "> 100", "unit": "µM"}, {"measurement": "TGI", "setting": "HCT-116 colon", "value": "> 100", "unit": "µM"}, {"measurement": "TGI", "setting": "K-562 leukemia", "value": "> 100", "unit": "µM"}]}, {"smiles": "O=S(=O)(O)c1ccc2c(N=Nc3ccccc3Cl)c(O)ccc2c1", "values": [{"measurement": "TGI", "setting": "SK-MEL-5 melanoma", "value": "> 100", "unit": "µM"}, {"measurement": "TGI", "setting": "SNB-19 CNS", "value": "> 100", "unit": "µM"}, {"measurement": "TGI", "setting": "A498 renal", "value": "> 100", "unit": "µM"}, {"measurement": "TGI", "setting": "EKVX NSCLC", "value": "> 100", "unit": "µM"}, {"measurement": "TGI", "setting": "OVCAR-8 ovarian", "value": "> 100", "unit": "µM"}, {"measurement": "TGI", "setting": "HOP-92 NSCLC", "value": "> 100", "unit": "µM"}, {"measurement": "TGI", "setting": "CCRF-CEM leukemia", "value": "> 100", "unit": "µM"}, {"measurement": "TGI", "setting": "HCT-116 colon", "value": "> 100", "unit": "µM"}, {"measurement": "TGI", "setting": "NCI-H23 lung", "value": "> 100", "unit": "µM"}, {"measurement": "TGI", "setting": "K-562 leukemia", "value": "> 100", "unit": "µM"}]}, {"smiles": "COC(OC)(c1ccccc1)C(I)I", "values": [{"measurement": "TGI", "setting": "SK-MEL-5 melanoma", "value": 21.9, "unit": "µM"}, {"measurement": "TGI", "setting": "SNB-19 CNS", "value": "> 71", "unit": "µM"}, {"measurement": "TGI", "setting": "EKVX NSCLC", "value": 16.9, "unit": "µM"}, {"measurement": "TGI", "setting": "OVCAR-8 ovarian", "value": 35.1, "unit": "µM"}, {"measurement": "TGI", "setting": "HOP-92 NSCLC", "value": 26.7, "unit": "µM"}, {"measurement": "TGI", "setting": "CCRF-CEM leukemia", "value": 22.7, "unit": "µM"}, {"measurement": "TGI", "setting": "HCT-116 colon", "value": 18.1, "unit": "µM"}, {"measurement": "TGI", "setting": "NCI-H23 lung", "value": 50.7, "unit": "µM"}, {"measurement": "TGI", "setting": "K-562 leukemia", "value": "> 35.4", "unit": "µM"}]}, {"smiles": "Cc1ccc([N+](=O)[O-])cc1S(=O)(=O)Nc1ccc(C2=NNC(c3cccs3)C2)cc1", "note": "(stereo not given)", "values": [{"measurement": "TGI", "setting": "SK-MEL-5 melanoma", "value": 46.3, "unit": "µM"}, {"measurement": "TGI", "setting": "SNB-19 CNS", "value": "> 100", "unit": "µM"}, {"measurement": "TGI", "setting": "A498 renal", "value": 93.1, "unit": "µM"}, {"measurement": "TGI", "setting": "EKVX NSCLC", "value": 64.2, "unit": "µM"}, {"measurement": "TGI", "setting": "OVCAR-8 ovarian", "value": "> 100", "unit": "µM"}, {"measurement": "TGI", "setting": "HOP-92 NSCLC", "value": "> 100", "unit": "µM"}, {"measurement": "TGI", "setting": "CCRF-CEM leukemia", "value": "> 100", "unit": "µM"}, {"measurement": "TGI", "setting": "HCT-116 colon", "value": 63.5, "unit": "µM"}, {"measurement": "TGI", "setting": "NCI-H23 lung", "value": "> 100", "unit": "µM"}, {"measurement": "TGI", "setting": "K-562 leukemia", "value": "> 100", "unit": "µM"}]}, {"smiles": "NC12CC3CC4C1CC1CC2C(C3)C4(N)C1", "values": [{"measurement": "TGI", "setting": "SK-MEL-5 melanoma", "value": "> 100", "unit": "µM"}, {"measurement": "TGI", "setting": "SNB-19 CNS", "value": "> 100", "unit": "µM"}, {"measurement": "TGI", "setting": "A498 renal", "value": "> 100", "unit": "µM"}, {"measurement": "TGI", "setting": "EKVX NSCLC", "value": "> 100", "unit": "µM"}, {"measurement": "TGI", "setting": "OVCAR-8 ovarian", "value": "> 100", "unit": "µM"}, {"measurement": "TGI", "setting": "HOP-92 NSCLC", "value": "> 100", "unit": "µM"}, {"measurement": "TGI", "setting": "CCRF-CEM leukemia", "value": "> 100", "unit": "µM"}, {"measurement": "TGI", "setting": "HCT-116 colon", "value": "> 100", "unit": "µM"}, {"measurement": "TGI", "setting": "NCI-H23 lung", "value": "> 100", "unit": "µM"}, {"measurement": "TGI", "setting": "K-562 leukemia", "value": "> 100", "unit": "µM"}]}, {"smiles": "CCOC(=O)c1cc(=O)oc2c1N(C)c1ncccc1N2", "values": [{"measurement": "TGI", "setting": "SNB-19 CNS", "value": "> 100", "unit": "µM"}, {"measurement": "TGI", "setting": "A498 renal", "value": "> 100", "unit": "µM"}, {"measurement": "TGI", "setting": "OVCAR-8 ovarian", "value": "> 100", "unit": "µM"}, {"measurement": "TGI", "setting": "HCT-116 colon", "value": "> 100", "unit": "µM"}, {"measurement": "TGI", "setting": "NCI-H23 lung", "value": "> 100", "unit": "µM"}, {"measurement": "TGI", "setting": "K-562 leukemia", "value": "> 100", "unit": "µM"}]}, {"smiles": "COc1cc(C2SCC(=O)N2c2ccc(Cl)cc2)cc(I)c1O", "note": "(stereo not given)", "values": [{"measurement": "TGI", "setting": "SK-MEL-5 melanoma", "value": "> 100", "unit": "µM"}, {"measurement": "TGI", "setting": "SNB-19 CNS", "value": "> 100", "unit": "µM"}, {"measurement": "TGI", "setting": "A498 renal", "value": "> 23.2", "unit": "µM"}, {"measurement": "TGI", "setting": "EKVX NSCLC", "value": "> 100", "unit": "µM"}, {"measurement": "TGI", "setting": "OVCAR-8 ovarian", "value": "> 100", "unit": "µM"}, {"measurement": "TGI", "setting": "HOP-92 NSCLC", "value": "> 100", "unit": "µM"}, {"measurement": "TGI", "setting": "CCRF-CEM leukemia", "value": "> 100", "unit": "µM"}, {"measurement": "TGI", "setting": "HCT-116 colon", "value": "> 100", "unit": "µM"}, {"measurement": "TGI", "setting": "NCI-H23 lung", "value": "> 100", "unit": "µM"}, {"measurement": "TGI", "setting": "K-562 leukemia", "value": "> 100", "unit": "µM"}]}, {"smiles": "CSc1nc(O)c(/C=C2\\C=Nc3ccccc32)[nH]1", "values": [{"measurement": "TGI", "setting": "SK-MEL-5 melanoma", "value": "> 100", "unit": "µM"}, {"measurement": "TGI", "setting": "SNB-19 CNS", "value": "> 100", "unit": "µM"}, {"measurement": "TGI", "setting": "A498 renal", "value": "> 100", "unit": "µM"}, {"measurement": "TGI", "setting": "OVCAR-8 ovarian", "value": "> 100", "unit": "µM"}, {"measurement": "TGI", "setting": "HOP-92 NSCLC", "value": "> 100", "unit": "µM"}, {"measurement": "TGI", "setting": "CCRF-CEM leukemia", "value": "> 100", "unit": "µM"}, {"measurement": "TGI", "setting": "HCT-116 colon", "value": "> 100", "unit": "µM"}, {"measurement": "TGI", "setting": "NCI-H23 lung", "value": "> 100", "unit": "µM"}, {"measurement": "TGI", "setting": "K-562 leukemia", "value": "> 100", "unit": "µM"}]}, {"smiles": "Cc1ccc(/C=N/Nc2nncc3ccccc23)s1", "values": [{"measurement": "TGI", "setting": "SK-MEL-5 melanoma", "value": "> 100", "unit": "µM"}, {"measurement": "TGI", "setting": "SNB-19 CNS", "value": "> 100", "unit": "µM"}, {"measurement": "TGI", "setting": "A498 renal", "value": "> 100", "unit": "µM"}, {"measurement": "TGI", "setting": "EKVX NSCLC", "value": "> 100", "unit": "µM"}, {"measurement": "TGI", "setting": "OVCAR-8 ovarian", "value": "> 100", "unit": "µM"}, {"measurement": "TGI", "setting": "HOP-92 NSCLC", "value": "> 100", "unit": "µM"}, {"measurement": "TGI", "setting": "CCRF-CEM leukemia", "value": "> 100", "unit": "µM"}, {"measurement": "TGI", "setting": "HCT-116 colon", "value": "> 100", "unit": "µM"}, {"measurement": "TGI", "setting": "NCI-H23 lung", "value": "> 100", "unit": "µM"}, {"measurement": "TGI", "setting": "K-562 leukemia", "value": "> 100", "unit": "µM"}]}, {"smiles": "O=C1CCCCC[C@]12SC[C@H]1CON=C12", "values": [{"measurement": "TGI", "setting": "SK-MEL-5 melanoma", "value": "> 100", "unit": "µM"}, {"measurement": "TGI", "setting": "SNB-19 CNS", "value": "> 100", "unit": "µM"}, {"measurement": "TGI", "setting": "A498 renal", "value": 44.7, "unit": "µM"}, {"measurement": "TGI", "setting": "EKVX NSCLC", "value": "> 100", "unit": "µM"}, {"measurement": "TGI", "setting": "OVCAR-8 ovarian", "value": "> 100", "unit": "µM"}, {"measurement": "TGI", "setting": "HOP-92 NSCLC", "value": 50.2, "unit": "µM"}, {"measurement": "TGI", "setting": "CCRF-CEM leukemia", "value": "> 100", "unit": "µM"}, {"measurement": "TGI", "setting": "HCT-116 colon", "value": "> 100", "unit": "µM"}, {"measurement": "TGI", "setting": "NCI-H23 lung", "value": "> 100", "unit": "µM"}, {"measurement": "TGI", "setting": "K-562 leukemia", "value": "> 100", "unit": "µM"}]}, {"smiles": "CSc1nncc2[nH]cnc12", "values": [{"measurement": "TGI", "setting": "SK-MEL-5 melanoma", "value": "> 100", "unit": "µM"}, {"measurement": "TGI", "setting": "SNB-19 CNS", "value": "> 100", "unit": "µM"}, {"measurement": "TGI", "setting": "A498 renal", "value": "> 100", "unit": "µM"}, {"measurement": "TGI", "setting": "EKVX NSCLC", "value": "> 100", "unit": "µM"}, {"measurement": "TGI", "setting": "OVCAR-8 ovarian", "value": "> 100", "unit": "µM"}, {"measurement": "TGI", "setting": "CCRF-CEM leukemia", "value": "> 100", "unit": "µM"}, {"measurement": "TGI", "setting": "HCT-116 colon", "value": "> 100", "unit": "µM"}, {"measurement": "TGI", "setting": "NCI-H23 lung", "value": "> 100", "unit": "µM"}, {"measurement": "TGI", "setting": "K-562 leukemia", "value": "> 100", "unit": "µM"}]}]}
